Assay results taken from ChEMBL document CHEMBL3885881, “DrugMatrix”.

Species: Rattus norvegicus
Experiment: DrugMatrix - Regimen: Daily Repeat
Type: toxicity, organism-based, Sprague-Dawley
Set-up: regimen Daily Repeat, gender Male, age 6-8 weeks
Conditions: in vivo, po, route oral GAVAGE, vehicle 100 % WATER; for ABSOLUTE BASOPHIL / ABSOLUTE EOSINOPHIL / ABSOLUTE LYMPHOCYTE / ABSOLUTE MONOCYTE / ABSOLUTE SEGMENTED NEUTROPHIL / BASOPHIL / EOSINOPHIL / ERYTHROCYTE COUNT / HEMATOCRIT / HEMOGLOBIN / LEUKOCYTE COUNT / LYMPHOCYTE / MEAN CORPUSCULAR HEMOGLOBIN / MEAN CORPUSCULAR HEMOGLOBIN CONCENTRATION / MONOCYTE / NEUTROPHIL / NUCLEATED RED BLOOD CELLS / PLATELET COUNT: tissue Blood; for ALANINE AMINOTRANSFERASE / ALBUMIN / ALKALINE PHOSPHATASE / ASPARTATE AMINOTRANSFERASE / BLOOD UREA NITROGEN / CARBON DIOXIDE / CHLORIDE / CHOLESTEROL / CREATINE PHOSPHOKINASE / CREATININE / GLUCOSE / LACTATE DEHYDROGENASE / LIPASE / PHOSPHORUS / POTASSIUM / SODIUM / TOTAL BILIRUBIN / TOTAL PROTEIN / URIC ACID: tissue Plasma
[1] = 0 mg/kg, 72 h, dose level Control, time 3 day
[2] = 0 mg/kg, 120 h, dose level Control, time 5 day
[3] = 35 mg/kg, 72 h, dose level Low, time 3 day

Nc1ccn([C@@H]2CS[C@H](CO)O2)c(=O)n1 [LAMIVUDINE]
ABSOLUTE BASOPHIL [1]: 0 CELLS/uL | ABSOLUTE EOSINOPHIL [1]: 0 CELLS/uL | ABSOLUTE LYMPHOCYTE [1]: 8482.5 CELLS/uL | ABSOLUTE MONOCYTE [1]: 63.83 CELLS/uL | ABSOLUTE SEGMENTED NEUTROPHIL [1]: 887 CELLS/uL | BASOPHIL [1]: 0% | EOSINOPHIL [1]: 0% | ERYTHROCYTE COUNT [1]: 5.49 x10E6/uL | HEMATOCRIT [1]: 34.5% | HEMOGLOBIN [1]: 13.33 G/DL | LEUKOCYTE COUNT [1]: 9.43 x10E3/uL | LYMPHOCYTE [1]: 90.17% | MEAN CORPUSCULAR HEMOGLOBIN [1]: 24.3 pg | MEAN CORPUSCULAR HEMOGLOBIN CONCENTRATION [1]: 38.63 G/DL | MONOCYTE [1]: 0.67% | NEUTROPHIL [1]: 9.17% | NUCLEATED RED BLOOD CELLS [1]: 0.67 /100WBC | PLATELET COUNT [1]: 1022.83 x10E3/uL | ALANINE AMINOTRANSFERASE [1]: 50.5 u/L | ALBUMIN [1]: 4.08 G/DL | ALKALINE PHOSPHATASE [1]: 368.33 u/L | ASPARTATE AMINOTRANSFERASE [1]: 87.5 u/L | BLOOD UREA NITROGEN [1]: 12.83 mg/dL | CARBON DIOXIDE [1]: 32.83 mmol/L | CHLORIDE [1]: 99.67 MEQ/L | CHOLESTEROL [1]: 79.67 mg/dL | CREATINE PHOSPHOKINASE [1]: 585 u/L | CREATININE [1]: 0.22 mg/dL | GLUCOSE [1]: 135.67 mg/dL | LACTATE DEHYDROGENASE [1]: 171 u/L | LIPASE [1]: 9.5 u/L | PHOSPHORUS [1]: 11.18 mg/dL | POTASSIUM [1]: 6.25 MEQ/L | SODIUM [1]: 144.87 MEQ/L | TOTAL BILIRUBIN [1]: 0.2 mg/dL | TOTAL PROTEIN [1]: 6.08 G/DL | URIC ACID [1]: 0.65 mg/dL | ABSOLUTE BASOPHIL [2]: 0 CELLS/uL | ABSOLUTE EOSINOPHIL [2]: 14.5 CELLS/uL | ABSOLUTE LYMPHOCYTE [2]: 7596.17 CELLS/uL | ABSOLUTE MONOCYTE [2]: 69.67 CELLS/uL | ABSOLUTE SEGMENTED NEUTROPHIL [2]: 503 CELLS/uL | BASOPHIL [2]: 0% | EOSINOPHIL [2]: 0.17% | ERYTHROCYTE COUNT [2]: 5.49 x10E6/uL | HEMATOCRIT [2]: 34.72% | HEMOGLOBIN [2]: 13.47 G/DL | LEUKOCYTE COUNT [2]: 8.18 x10E3/uL | LYMPHOCYTE [2]: 92.17% | MEAN CORPUSCULAR HEMOGLOBIN [2]: 24.57 pg | MEAN CORPUSCULAR HEMOGLOBIN CONCENTRATION [2]: 38.82 G/DL | MONOCYTE [2]: 1% | NEUTROPHIL [2]: 6.67% | NUCLEATED RED BLOOD CELLS [2]: 0 /100WBC | PLATELET COUNT [2]: 1141 x10E3/uL | ALANINE AMINOTRANSFERASE [2]: 48.33 u/L | ALBUMIN [2]: 4.07 G/DL | ALKALINE PHOSPHATASE [2]: 395.67 u/L | ASPARTATE AMINOTRANSFERASE [2]: 85.67 u/L | BLOOD UREA NITROGEN [2]: 15.83 mg/dL | CARBON DIOXIDE [2]: 31.33 mmol/L | CHLORIDE [2]: 100.83 MEQ/L | CREATINE PHOSPHOKINASE [2]: 248.33 u/L | CREATININE [2]: 0.2 mg/dL | GLUCOSE [2]: 135.67 mg/dL | LACTATE DEHYDROGENASE [2]: 141.33 u/L | LIPASE [2]: 9.5 u/L | PHOSPHORUS [2]: 10.73 mg/dL | POTASSIUM [2]: 6.07 MEQ/L | SODIUM [2]: 145.35 MEQ/L | TOTAL BILIRUBIN [2]: 0.22 mg/dL | TOTAL PROTEIN [2]: 6.12 G/DL | URIC ACID [2]: 0.63 mg/dL | ABSOLUTE BASOPHIL [3]: 0 CELLS/uL | ABSOLUTE EOSINOPHIL [3]: 40.67 CELLS/uL | ABSOLUTE LYMPHOCYTE [3]: 11136 CELLS/uL | ABSOLUTE MONOCYTE [3]: 119.67 CELLS/uL | ABSOLUTE SEGMENTED NEUTROPHIL [3]: 470.33 CELLS/uL | BASOPHIL [3]: 0% | EOSINOPHIL [3]: 0.33% | ERYTHROCYTE COUNT [3]: 5.47 x10E6/uL | HEMATOCRIT [3]: 34.33% | HEMOGLOBIN [3]: 13.4 G/DL | LEUKOCYTE COUNT [3]: 11.77 x10E3/uL | LYMPHOCYTE [3]: 94.67% | MEAN CORPUSCULAR HEMOGLOBIN [3]: 24.5 pg | MEAN CORPUSCULAR HEMOGLOBIN CONCENTRATION [3]: 39.03 G/DL | MONOCYTE [3]: 1% | NEUTROPHIL [3]: 4% | NUCLEATED RED BLOOD CELLS [3]: 0 /100WBC | PLATELET COUNT [3]: 1274 x10E3/uL | ALANINE AMINOTRANSFERASE [3]: 51.67 u/L | ALBUMIN [3]: 4.27 G/DL | ALKALINE PHOSPHATASE [3]: 390.33 u/L | ASPARTATE AMINOTRANSFERASE [3]: 80.67 u/L | BLOOD UREA NITROGEN [3]: 12.33 mg/dL | CARBON DIOXIDE [3]: 34.33 mmol/L | CHLORIDE [3]: 98.33 MEQ/L | CHOLESTEROL [3]: 78 mg/dL | CREATINE PHOSPHOKINASE [3]: 237.33 u/L | CREATININE [3]: 0.2 mg/dL | GLUCOSE [3]: 124.67 mg/dL | LACTATE DEHYDROGENASE [3]: 167.33 u/L | LIPASE [3]: 10 u/L | PHOSPHORUS [3]: 10.9 mg/dL | POTASSIUM [3]: 6.42 MEQ/L | SODIUM [3]: 144.2 MEQ/L | TOTAL BILIRUBIN [3]: 0.13 mg/dL | URIC ACID [3]: 0.87 mg/dL
